Reference: patent US4066768A, “Derivatives of 1-phenoxy-3-amino-propan-2-ol” (Cassella Farbwerke Mainkur Aktiengesellschaft, priority 1973, dated 1978)

Legend:
[1] = biological target: T1, β1-receptors of the heart (Canis lupus familiaris, UniProt P79148); experiment: Inhibition of isoproterenol-induced increase in rate of pressure rise (Dp/dt max.) in left ventricle of anaesthetised dogs (β1-receptor inhibition); assay type: in vivo, mongrel dogs; details: for ED50: dog, iv, read-out: β1-receptor inhibition ED 50; for Quotient: ED 50 of β2-receptor inhibition / ED 50 of β1-receptor inhibition / Relative quotient, on basis of reference substance = 1 / Relative β1-receptor inhibition (reference substance = 100): dogs; for Quotient: ED 50 of β2-receptor inhibition / ED 50 of β1-receptor inhibition: cardioselectivity, higher = better; for Relative quotient, on basis of reference substance = 1: relative cardioselectivity factor; for Relative β1-receptor inhibition (reference substance = 100): relative ED 50, lower = more active
T1 construct: from tissue; host or cells: heart (left ventricle) of anaesthetised mongrel dogs, in vivo
Experimental: (§1) The blocking action of the compounds according to the invention on the β1-receptors of the heart and on the β2-receptors of the cardiovascular system was investigated as follows: the blood pressure in the left-hand ventricle was measured on mongrel dogs of both sexes under an anaesthesia by Chloralose-urethane-morphine and the pressure signal was continuously differentiated by means of an analogue computer (BRUSH Instruments, Cleveland/Ohio) and, inter alia, the rate of pressure increase (Dp/dt) was recorded. In addition, the perfusion of a femoral artery was measured by means of an electromagnetic flow-meter (Model […] of Messrs. Statham) and the perfusion was recorded in ml/minute. […] DUNLOP and […]: Selective blockade of adrenoceptive beta-receptors in the heart. Brit. J. Pharmac. Chemother. (1968) 32, 201-218). […] The higher this quotient is, the better the cardioselective action.

[2] = biological target: T2, β2-receptors of the cardiovascular system (Canis lupus familiaris, UniProt P54833); experiment: Inhibition of isoproterenol-induced alteration of peripheral (femoral artery) perfusion in anaesthetised dogs (β2-receptor inhibition); assay type: in vivo, mongrel dogs; details: for ED50: dog, iv, read-out: β2-receptor inhibition ED 50; for Relative β2-receptor inhibition (reference substance = 100): relative ED 50, dogs
T2 construct: from tissue; host or cells: femoral artery vascular bed of anaesthetised mongrel dogs, in vivo
Experimental: as §1

[3] = test system: cardiac β1-receptors; experiment: Inhibition of isoproterenol-induced increase in heart rate in anaesthetized guinea pigs (β1-receptor inhibition); assay type: in vivo; details: for β1-receptor inhibition, parameter: heart rate response to isoproterenol: ED-50: i.v., guinea pigs anaesthetized with urethane, isoproterenol 0.5 gamma/animal
Experimental: The isoproterenol-induced increase in heart rate in anaesthetized animals represents mainly the response of the cardiac β1-receptors. The dose of the antagonists (mg/kg i.v.) which inhibits this response of isoproterenol (0.5 gamma/animal) in guinea pigs, anaesthetized with urethane, by 50% : ED-50 was determined.

[4] = biological target: T3, tracheal β2-receptors (Cavia porcellus, UniProt Q8K4Z4); experiment: Inhibition of isoproterenol-induced relaxation of contracted isolated tracheal chain (β2-receptor inhibition); parameters: species or system guinea pigs
T3 construct: isolated tracheal chain of guinea pigs; from tissue; host or cells: isolated guinea pig tracheal chain
Experimental: The isoproterenol-induced relaxation of contracted isolated tracheal chain of guinea pigs represents the response of the tracheal β2-receptors. The bath concentrations of the antagonists which reduce the isoproterenol effects by 50% were determined: ED-50 : g/ml bath.

T1 sequence (P79148 whole entry): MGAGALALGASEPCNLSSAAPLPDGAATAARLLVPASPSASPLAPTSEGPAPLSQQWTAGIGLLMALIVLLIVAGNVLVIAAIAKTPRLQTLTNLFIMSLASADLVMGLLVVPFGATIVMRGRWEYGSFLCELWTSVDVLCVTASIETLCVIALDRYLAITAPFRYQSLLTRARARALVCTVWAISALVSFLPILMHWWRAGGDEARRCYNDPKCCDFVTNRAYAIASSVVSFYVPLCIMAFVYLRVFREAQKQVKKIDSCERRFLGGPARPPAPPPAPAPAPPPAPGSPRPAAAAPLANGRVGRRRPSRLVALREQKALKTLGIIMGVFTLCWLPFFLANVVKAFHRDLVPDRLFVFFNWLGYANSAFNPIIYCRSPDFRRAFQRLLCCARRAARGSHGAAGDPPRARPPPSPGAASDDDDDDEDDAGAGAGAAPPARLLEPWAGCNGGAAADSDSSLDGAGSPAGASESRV
T2 sequence (P54833 whole entry, the tested form may be a part): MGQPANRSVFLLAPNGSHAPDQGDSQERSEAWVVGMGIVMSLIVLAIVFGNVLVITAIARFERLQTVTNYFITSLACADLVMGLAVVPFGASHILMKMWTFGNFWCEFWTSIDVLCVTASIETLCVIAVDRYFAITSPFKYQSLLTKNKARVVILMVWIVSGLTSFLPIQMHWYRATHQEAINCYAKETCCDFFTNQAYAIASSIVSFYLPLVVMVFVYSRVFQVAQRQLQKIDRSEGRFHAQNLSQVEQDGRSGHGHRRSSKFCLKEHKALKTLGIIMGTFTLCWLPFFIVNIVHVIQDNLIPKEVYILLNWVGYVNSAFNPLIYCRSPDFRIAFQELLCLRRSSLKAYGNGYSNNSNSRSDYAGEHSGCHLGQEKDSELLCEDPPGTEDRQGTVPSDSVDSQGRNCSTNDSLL
T3 sequence (Q8K4Z4 whole entry): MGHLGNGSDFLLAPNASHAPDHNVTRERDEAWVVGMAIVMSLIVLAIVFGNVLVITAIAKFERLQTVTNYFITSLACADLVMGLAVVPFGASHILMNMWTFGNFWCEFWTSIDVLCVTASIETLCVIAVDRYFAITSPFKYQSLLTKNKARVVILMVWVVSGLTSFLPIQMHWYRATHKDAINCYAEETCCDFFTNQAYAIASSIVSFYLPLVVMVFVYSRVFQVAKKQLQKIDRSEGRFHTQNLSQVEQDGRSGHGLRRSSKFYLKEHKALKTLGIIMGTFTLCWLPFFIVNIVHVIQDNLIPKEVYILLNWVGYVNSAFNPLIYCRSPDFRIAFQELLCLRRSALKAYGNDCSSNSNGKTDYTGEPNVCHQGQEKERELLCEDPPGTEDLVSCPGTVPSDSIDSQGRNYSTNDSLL

IC50 ([4]; bath concentration reducing isoproterenol effects by 50%, guinea pig trachea, read-out: β2-receptor inhibition, parameter: isolated tracheal chain: ED-50 (converted)) [µM] | Relative β2-receptor inhibition (reference substance = 100) ([4]; isolated tracheal chain, guinea pigs) | Compound | ED50 [1] [mg/kg] | Quotient: ED 50 of β2-receptor inhibition / ED 50 of β1-receptor inhibition [1] | Relative quotient, on basis of reference substance = 1 [1] | Relative β1-receptor inhibition (reference substance = 100) [1] | ED50 [2] [mg/kg] | Relative β2-receptor inhibition (reference substance = 100) [2] | Relative β1-receptor inhibition (reference substance = 100) ([3]; heart rate, guinea pigs) | β1-receptor inhibition, parameter: heart rate response to isoproterenol: ED-50 [3] [mg/kg]
– | – | Cc1ccc(C(O)CC(C)NCC(O)COc2ccc(OCCO)cc2)cn1 (centres unmarked) [1-(-p-[2-Hydroxy-ethoxy]-henoxy)-3-(1-[2-methyl-pyridyl-5]-1-hydroxy-butyl(3)-amino)-propan-2-ol] | 0.073 | 112 | 1 | 30.7 | 8.14 | 30.7 | – | –
– | – | C=CCNC(=O)Nc1ccc(OCC(O)CNC(C)CC(O)c2cnc(C)nc2C)cc1 (centres unmarked) [1-(p-Allylureido-phenoxy)-3-(1-[2,4-dimethyl-pyrimidyl-5]-1-hydroxy-butyl(3)-amino)-propan-2-ol] | 0.019 | – | – | 7.9 | – | – | – | –
– | – | Cc1ncc(C(O)CC(C)NCC(O)COc2ccc(NC(=O)NC3CCCCC3)cc2)c(C)n1 (centres unmarked) [1-(p-Cyclohexylureido-phenoxy)-3-(1-[2,4-dimethyl-pyrimidyl-5] -1-hydroxy-butyl(3)-amino)-propan-2-ol] | 0.011 | 128 | 1.1 | 4.6 | 1.38 | 5.2 | – | –
– | – | Cc1ccc(C(O)CC(C)NCC(O)COc2ccc(NC(=O)NC3CCCCC3)cc2)cn1 (centres unmarked) [1-(p-Cyclohexylureido-phenoxy)-3-(1-[2-methyl-pyridyl-5]-1-hydroxy-butyl(3)-amino)-propan-2-ol] | 0.006 | 245 | 2.4 | 2.5 | 1.57 | 5.9 | – | –
– | – | CC(CC(O)c1cccnc1)NCC(O)COc1ccc(NC(=O)NC2CCCCC2)cc1 (centres unmarked) [1-(p-Cyclohexylureidophenoxy)-3-(1-hydroxy-1-pyridyl-(3)-butyl3-amino)-propan-2-ol] | 0.003 | 409 | 2.9 | 1.3 | 1.02 | 3.8 | – | –
– | – | CCOCCOc1ccc(OCC(O)CNC(C)CC(O)c2cccnc2)cc1 (centres unmarked) [1-(p-Ethoxyethoxy-phenoxy)-3-(1-[pyridyl-3]-1-hydroxy-butyl(3)-amino)-propan-2-ol] | 0.009 | 296 | 2.7 | 3.8 | 2.76 | 10.1 | – | –
– | – | CCOCc1ccc(OCC(O)CNC(C)CC(O)c2cnc(C)nc2C)cc1 (centres unmarked) [1-(p-Ethoxymethylene-phenoxy)-3-(1-[2,4-dimethyl-pyrimidyl-5]-1-hydroxy-butyl(3)-amino)-propan-2-ol] | 0.019 | 144 | 1.4 | 7.9 | 2.88 | 10.7 | – | –
– | – | CCOCc1ccc(OCC(O)CNC(C)CC(O)c2cccnc2)cc1 (centres unmarked) [1-(p-Ethoxymethylene-phenoxy)-3-(1-[pyridyl-3]-1-hydroxy-butyl(3)-amino)-propan-2-ol] | 0.01 | – | – | 4.2 | – | – | – | –
– | – | CCNC(=O)Nc1ccc(OCC(O)CNC(C)CC(O)c2cnc(C)nc2C)cc1 (centres unmarked) [1-(p-Ethylureido-phenoxy)-3-(1-[2,4-dimethyl-pyrimidyl-5-]-1-hydroxy-butyl(3)-amino)-propan-2-ol] | 0.093 | 137 | 1.2 | 39.1 | 12.8 | 48.3 | – | –
– | – | CCNC(=O)Nc1ccc(OCC(O)CNC(C)CC(O)c2cccnc2)cc1 (centres unmarked) [1-(p-Ethylureido-phenoxy)-3-(1-[pyridyl-3]-1-hydroxy-butyl(3)-amino)-propan-2-ol] | 0.013 | – | – | 5.5 | – | – | – | –
– | – | Cc1ncc(C(O)CC(C)NCC(O)COc2ccc(NC(=O)NC(C)C)cc2)c(C)n1 (centres unmarked) [1-(p-Isopropylureido- -phenoxy)-3-(1-[2,4-dimethyl-pyrimidyl-5]-1-hydroxy-butyl(3)-amino)-propan-2-ol] | 0.022 | 124 | 1.1 | 9.2 | 2.71 | 10.2 | – | –
– | – | COCCCCOc1ccc(OCC(O)CNC(C)CC(O)c2cnc(C)nc2C)cc1 (centres unmarked) [1-(p-Methoxybutoxy-phenoxy)-3-(1-[2,4-dimethyl-pyrimidyl-5]-hydroxy-butyl(3)-amino)-propan-2-ol] | 0.089 | 176 | 1.6 | 37.4 | 16 | 58.8 | – | –
6.94 | 7.7 | CCCOCCOc1ccc(OCC(O)CNC(C)CC(O)c2ccc(C)nc2)cc1 (centres unmarked) [1-(p-[2-n-propoxy-ethoxy]-phenoxy)-3-(1-[2-methyl-pyridyl-5]-1-hydroxy-butyl(3)-amino)-propan-2-ol] | 0.035 | 146 | 1.3 | 14.7 | 5.1 | 19.2 | 3.39 | 0.177
– | – | CC(=O)Nc1ccc(OCC(O)CNC(C)C)cc1 (centres unmarked) [4-(2-Hydroxy-3-isopropylamino-propoxy)-acetanilide, reference compound] | – | – | – | – | – | – | – | 5.3
